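Five concentrations, 48 hours, 96-well plates. TGI: concentration producing complete growth inhibition.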
What was measured:
Assay in all cases: DTP human tumour cell line panel, 48 h
[1] = test system: HL-60(TB) leukemia
[2] = test system: CAKI-1 renal
[3] = test system: HOP-62 NSCLC
[4] = test system: DMS 273 small cell lung
[5] = test system: M14 melanoma
[6] = test system: RXF-631 renal
[7] = test system: OVCAR-4 ovarian
[8] = test system: HT29 colon
[9] = test system: OVCAR-3 ovarian
[10] = test system: DLD-1 colon
[11] = test system: OVCAR-5 ovarian
[12] = test system: SK-MEL-2 melanoma
[13] = test system: SNB-75 CNS
[14] = test system: LOX IMVI melanoma
[15] = test system: COLO 205 colon
[16] = test system: KM12 colon
[17] = test system: SF-295 CNS
[18] = test system: TK-10 renal
[19] = test system: SF-539 CNS
[20] = test system: EKVX NSCLC
[21] = test system: XF 498 CNS
[22] = test system: UACC-257 melanoma
[23] = test system: MOLT-4 leukemia
[24] = test system: DMS 114 small cell lung
[25] = test system: NCI-H460 lung
[26] = test system: SW-620 colon
[27] = test system: NCI-H226 lung
[28] = test system: ACHN renal
[29] = test system: K-562 leukemia
[30] = test system: SK-MEL-28 melanoma
[31] = test system: LXFL 529 NSCLC
[32] = test system: NCI-H522 lung
[33] = test system: SN12C renal
[34] = test system: CCRF-CEM leukemia
[35] = test system: HCT-15 colon
[36] = test system: M19-MEL melanoma
[37] = test system: MALME-3M melanoma
[38] = test system: HCC-2998 colon
[39] = test system: 786-0 renal
[40] = test system: A549 NSCLC
[41] = test system: KM20L2 colon
[42] = test system: HOP-18 NSCLC
[43] = test system: U251 CNS
[44] = test system: IGROV1 ovarian
[45] = test system: A498 renal
[46] = test system: UACC-62 melanoma
[47] = test system: SNB-19 CNS
[48] = test system: SF-268 CNS
[49] = test system: SK-OV-3 ovarian
[50] = test system: RPMI-8226 leukemia
[51] = test system: NCI-H23 lung
[52] = test system: OVCAR-8 ovarian
[53] = test system: SNB-78 CNS
[54] = test system: UO-31 renal
[55] = test system: SK-MEL-5 melanoma
[56] = test system: HOP-92 NSCLC
[57] = test system: HCT-116 colon
[58] = test system: RXF 393 renal

SMILES: CN(C)c1ccc(/C=C2\N=C(c3ccc(N)cc3)OC2=O)cc1
- TGI [1]: > 100 µM
- TGI [2]: > 100 µM
- TGI [3]: > 100 µM
- TGI [4]: > 100 µM
- TGI [5]: > 100 µM
- TGI [6]: > 100 µM
- TGI [7]: > 100 µM
- TGI [8]: > 100 µM
- TGI [9]: > 100 µM
- TGI [10]: > 100 µM
- TGI [11]: > 100 µM
- TGI [12]: > 100 µM
- TGI [13]: > 100 µM
- TGI [14]: > 100 µM
- TGI [15]: > 100 µM
- TGI [16]: > 100 µM
- TGI [17]: > 100 µM
- TGI [18]: > 100 µM
- TGI [19]: > 100 µM
- TGI [20]: > 100 µM
- TGI [21]: > 100 µM
- TGI [22]: > 100 µM
- TGI [23]: > 100 µM
- TGI [24]: > 100 µM
- TGI [25]: > 100 µM
- TGI [26]: > 100 µM
- TGI [27]: > 100 µM
- TGI [28]: > 100 µM
- TGI [29]: > 100 µM
- TGI [30]: > 100 µM
- TGI [31]: > 100 µM
- TGI [32]: > 100 µM
- TGI [33]: > 100 µM
- TGI [34]: > 100 µM
- TGI [35]: > 100 µM
- TGI [36]: > 100 µM
- TGI [37]: > 100 µM
- TGI [38]: > 100 µM
- TGI [39]: > 100 µM
- TGI [40]: > 100 µM
- TGI [41]: > 100 µM
- TGI [42]: > 100 µM
- TGI [43]: > 100 µM
- TGI [44]: > 100 µM
- TGI [45]: > 100 µM
- TGI [46]: > 100 µM
- TGI [47]: > 100 µM
- TGI [48]: > 100 µM
- TGI [49]: > 100 µM
- TGI [50]: > 100 µM
- TGI [51]: > 100 µM
- TGI [52]: > 100 µM
- TGI [53]: > 100 µM
- TGI [54]: > 100 µM
- TGI [55]: > 100 µM
- TGI [56]: > 100 µM

SMILES: O=C(c1ccc(NCN2C(=O)CCC2=O)cc1)c1ccc(NCN2C(=O)CCC2=O)cc1
- TGI [1]: 49.5 µM
- TGI [3]: > 100 µM
- TGI [4]: > 100 µM
- TGI [5]: > 100 µM
- TGI [6]: > 100 µM
- TGI [7]: > 100 µM
- TGI [8]: > 100 µM
- TGI [57]: > 100 µM
- TGI [9]: > 100 µM
- TGI [10]: > 100 µM
- TGI [11]: > 100 µM
- TGI [12]: > 100 µM
- TGI [14]: > 100 µM
- TGI [15]: > 100 µM
- TGI [16]: > 100 µM
- TGI [17]: > 100 µM
- TGI [18]: > 100 µM
- TGI [19]: > 100 µM
- TGI [20]: > 100 µM
- TGI [21]: > 100 µM
- TGI [22]: 84.6 µM
- TGI [23]: > 100 µM
- TGI [25]: > 100 µM
- TGI [26]: > 100 µM
- TGI [28]: > 100 µM
- TGI [29]: > 100 µM
- TGI [30]: > 100 µM
- TGI [31]: > 100 µM
- TGI [32]: > 100 µM
- TGI [33]: > 100 µM
- TGI [34]: > 100 µM
- TGI [35]: > 100 µM
- TGI [36]: > 100 µM
- TGI [58]: > 100 µM
- TGI [37]: > 100 µM
- TGI [38]: > 100 µM
- TGI [39]: > 100 µM
- TGI [40]: > 100 µM
- TGI [41]: > 100 µM
- TGI [43]: > 100 µM
- TGI [44]: > 100 µM
- TGI [46]: > 100 µM
- TGI [47]: > 100 µM
- TGI [48]: > 100 µM
- TGI [50]: 43.9 µM
- TGI [51]: > 100 µM
- TGI [52]: > 100 µM
- TGI [53]: > 100 µM
- TGI [54]: > 100 µM
- TGI [55]: > 100 µM
- TGI [56]: > 100 µM

Reference: PubChem BioAssay (NCI)
